Assay results published in US9120820B2, “Fluorescent molecular probes for use in assays that measure test compound competitive binding with SAM-utilizing proteins” (CAYMAN CHEMICAL COMPANY, INCORPORATED, priority 2011, dated 2015).

Assays:
Type in all cases: biochemical
[1] = target: T1, PRMT1 (Homo sapiens, UniProt Q99873); assay: Radiometric methyltransferase assay, PRMT1; settings: PRMT1 100 nM; compound 10 μM, 1 μM, or 0.1 μM; FIG. 13
T1 construct: purchased Cayman
Method: (§1) Reagents: Compound 16A was prepared by the method described in Example 4 and illustrated in FIG. 5. The Compounds 20A-iv and 20A-iii were prepared according to methods described in Example 6 and illustrated in FIG. 7. Enzymes were obtained from the Cayman Catalog with the exception of PRMT4 and PRMT6, which were produced in baculovirus and purified to near homogeneity using Ni-affinity chromatography. Human core histones were purified from HeLa nuclear pellet per the method of Coté et al. S-adenosylmethionine (SAM) was obtained from Sigma-Aldrich (Cat #A7007) and S-[methyl-3H]-SAM was obtained from Perkin-Elmer ([…]). Methods: […] To this was added enzyme diluted to provide a final assay concentration (GLP: 10 nM; PRMT1: 100 nM; SET7/9: 120 nM; PRDM9: 120 nM; PRMT4: 150 nM; PRMT6: 120 nM; G9a: 200 nM) and the compound was allowed to preincubate for 10 minutes at room temperature. […] Samples were mixed immediately after quenching and transferred to a 96-well GFC Uni-Filter microtiter filter plate (Perkin Elmer, Cat#6005174) that contained 50 μl of 20% TCA. Samples were allowed to precipitate for at least 5 minutes at room temperature. The samples were filtered onto the GFC membrane and washed four times with 100 μl of 10% TCA and once with 100 μl of 95% EtOH. To each well was added 25 μl of MicroScint-20 (Perkin-Elmer Cat#6013621) and samples were analyzed using a TopCount NXT microplate scintillation counter. The experiment was performed one time in duplicate for all compound concentrations tested and in triplicate for the vehicle and no enzyme controls. All data was analyzed in GraphPad Prism (v. 5.04).

[2] = target: T2, PRDM9 (Homo sapiens, UniProt Q9NQV7); assay: Radiometric methyltransferase assay, PRDM9; settings: PRDM9 120 nM; compound 10 μM, 1 μM, or 0.1 μM; FIG. 13
T2 construct: purchased Cayman
Method: as §1

[3] = target: T3, SET7/9 (Homo sapiens, UniProt Q8WTS6); assay: Radiometric methyltransferase assay, SET7/9; settings: SET7/9 120 nM; compound 10 μM, 1 μM, or 0.1 μM; FIG. 13
T3 construct: purchased Cayman 10320
T3 sequence (Q8WTS6 1-366): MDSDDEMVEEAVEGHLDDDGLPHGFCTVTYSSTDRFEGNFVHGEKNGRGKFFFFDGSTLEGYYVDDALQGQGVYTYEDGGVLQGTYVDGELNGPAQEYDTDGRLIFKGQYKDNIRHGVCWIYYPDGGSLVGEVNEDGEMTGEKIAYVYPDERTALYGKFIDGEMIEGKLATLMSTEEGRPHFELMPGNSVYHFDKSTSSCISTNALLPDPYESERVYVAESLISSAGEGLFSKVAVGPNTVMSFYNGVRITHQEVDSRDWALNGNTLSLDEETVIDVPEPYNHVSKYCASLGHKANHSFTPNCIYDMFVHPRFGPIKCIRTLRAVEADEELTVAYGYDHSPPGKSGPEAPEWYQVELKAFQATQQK
Method: as §1

[4] = target: T4, PRMT6 (Homo sapiens, UniProt Q96LA8); assay: Radiometric methyltransferase assay, PRMT6; settings: PRMT6 120 nM; compound 10 μM, 1 μM, or 0.1 μM; FIG. 13
T4 construct: made in house; host or cells: baculovirus expression
Method: as §1

[5] = target: T5, GLP (Homo sapiens, UniProt Q9H9B1); assay: Radiometric methyltransferase assay, GLP; settings: GLP 10 nM; compound 10 μM, 1 μM, or 0.1 μM; FIG. 13
T5 sequence (Q9H9B1 1-1298): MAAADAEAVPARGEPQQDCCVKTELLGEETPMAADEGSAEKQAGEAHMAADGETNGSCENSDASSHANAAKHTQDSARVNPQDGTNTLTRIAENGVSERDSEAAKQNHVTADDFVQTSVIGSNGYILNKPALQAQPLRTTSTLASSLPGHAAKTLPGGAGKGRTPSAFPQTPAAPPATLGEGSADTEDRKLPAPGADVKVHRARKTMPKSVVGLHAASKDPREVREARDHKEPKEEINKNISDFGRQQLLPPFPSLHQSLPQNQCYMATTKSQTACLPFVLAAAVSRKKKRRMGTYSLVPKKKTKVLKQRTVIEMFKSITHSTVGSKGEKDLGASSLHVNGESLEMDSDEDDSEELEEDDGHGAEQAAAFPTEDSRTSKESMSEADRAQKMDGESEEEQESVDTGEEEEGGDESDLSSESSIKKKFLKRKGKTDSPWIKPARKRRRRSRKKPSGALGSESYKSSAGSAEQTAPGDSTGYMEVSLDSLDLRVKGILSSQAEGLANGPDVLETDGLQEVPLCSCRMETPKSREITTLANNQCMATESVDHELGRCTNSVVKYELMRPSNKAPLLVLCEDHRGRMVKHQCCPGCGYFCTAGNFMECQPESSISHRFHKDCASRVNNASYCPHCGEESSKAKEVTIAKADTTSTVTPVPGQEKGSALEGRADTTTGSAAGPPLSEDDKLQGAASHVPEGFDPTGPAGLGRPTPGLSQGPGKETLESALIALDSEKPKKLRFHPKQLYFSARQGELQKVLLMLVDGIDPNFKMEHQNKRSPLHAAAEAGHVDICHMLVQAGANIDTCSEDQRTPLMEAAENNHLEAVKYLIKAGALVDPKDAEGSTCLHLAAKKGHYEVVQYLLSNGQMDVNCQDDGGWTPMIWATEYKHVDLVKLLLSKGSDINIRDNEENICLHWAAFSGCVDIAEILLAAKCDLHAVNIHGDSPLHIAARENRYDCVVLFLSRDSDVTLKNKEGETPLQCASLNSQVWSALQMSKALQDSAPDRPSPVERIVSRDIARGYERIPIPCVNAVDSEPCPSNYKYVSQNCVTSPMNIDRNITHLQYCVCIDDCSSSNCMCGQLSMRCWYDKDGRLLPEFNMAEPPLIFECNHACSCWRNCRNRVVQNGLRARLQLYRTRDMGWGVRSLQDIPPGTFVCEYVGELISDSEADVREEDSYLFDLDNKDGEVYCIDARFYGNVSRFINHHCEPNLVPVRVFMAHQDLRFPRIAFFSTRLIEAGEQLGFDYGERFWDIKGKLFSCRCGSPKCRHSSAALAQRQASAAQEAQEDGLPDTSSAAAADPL
Method: as §1

T2 sequence (Q9NQV7 whole entry, species assumed): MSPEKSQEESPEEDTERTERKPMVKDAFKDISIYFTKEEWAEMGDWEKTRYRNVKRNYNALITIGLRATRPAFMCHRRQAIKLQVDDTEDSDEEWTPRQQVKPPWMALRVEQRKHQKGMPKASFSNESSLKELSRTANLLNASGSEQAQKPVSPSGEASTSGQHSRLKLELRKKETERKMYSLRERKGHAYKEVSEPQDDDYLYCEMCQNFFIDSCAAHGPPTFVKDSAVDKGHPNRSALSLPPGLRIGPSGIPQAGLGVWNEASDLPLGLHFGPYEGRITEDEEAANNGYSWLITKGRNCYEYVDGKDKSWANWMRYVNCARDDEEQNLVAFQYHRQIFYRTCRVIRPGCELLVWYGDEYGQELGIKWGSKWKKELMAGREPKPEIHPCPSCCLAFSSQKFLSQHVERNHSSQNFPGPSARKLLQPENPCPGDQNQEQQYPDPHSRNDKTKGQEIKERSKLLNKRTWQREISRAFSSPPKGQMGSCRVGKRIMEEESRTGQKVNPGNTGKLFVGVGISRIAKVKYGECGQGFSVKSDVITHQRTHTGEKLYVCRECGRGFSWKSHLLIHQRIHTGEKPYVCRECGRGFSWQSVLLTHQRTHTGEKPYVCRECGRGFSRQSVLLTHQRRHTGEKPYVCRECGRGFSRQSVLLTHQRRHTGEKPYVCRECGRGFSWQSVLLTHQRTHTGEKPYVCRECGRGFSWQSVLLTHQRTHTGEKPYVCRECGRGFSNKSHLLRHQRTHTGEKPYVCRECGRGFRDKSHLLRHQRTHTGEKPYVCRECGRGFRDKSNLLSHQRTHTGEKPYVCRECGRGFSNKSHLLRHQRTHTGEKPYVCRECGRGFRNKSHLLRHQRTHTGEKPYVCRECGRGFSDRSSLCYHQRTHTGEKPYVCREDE
T4 sequence (Q96LA8 whole entry, species assumed): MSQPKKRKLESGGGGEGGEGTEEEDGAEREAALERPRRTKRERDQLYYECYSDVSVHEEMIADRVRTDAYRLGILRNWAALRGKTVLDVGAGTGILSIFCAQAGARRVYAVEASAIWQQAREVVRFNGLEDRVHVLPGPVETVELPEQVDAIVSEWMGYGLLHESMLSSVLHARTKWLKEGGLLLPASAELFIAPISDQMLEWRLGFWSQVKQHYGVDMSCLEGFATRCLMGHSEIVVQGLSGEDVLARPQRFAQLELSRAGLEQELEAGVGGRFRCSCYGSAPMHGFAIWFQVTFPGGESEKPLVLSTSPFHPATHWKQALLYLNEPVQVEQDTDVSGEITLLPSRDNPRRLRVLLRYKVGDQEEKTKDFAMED
T1 sequence (Q99873 whole entry): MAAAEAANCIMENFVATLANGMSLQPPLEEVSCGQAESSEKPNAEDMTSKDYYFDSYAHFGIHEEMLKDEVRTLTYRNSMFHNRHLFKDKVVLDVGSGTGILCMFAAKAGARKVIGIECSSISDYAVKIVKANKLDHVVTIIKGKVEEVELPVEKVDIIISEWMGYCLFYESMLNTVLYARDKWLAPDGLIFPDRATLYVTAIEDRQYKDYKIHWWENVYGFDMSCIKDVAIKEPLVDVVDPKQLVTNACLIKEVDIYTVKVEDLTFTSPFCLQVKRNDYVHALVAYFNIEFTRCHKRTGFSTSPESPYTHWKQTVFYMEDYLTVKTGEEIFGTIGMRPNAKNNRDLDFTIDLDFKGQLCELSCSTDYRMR

Compound	inhibition of enzymatic activity [1]	inhibition of enzymatic activity [2]	inhibition of enzymatic activity [3]	inhibition of enzymatic activity [4]	inhibition of enzymatic activity [5]
CSC[C@H]1O[C@@H](n2cnc3c(N)nc(NCCNC(=O)OC(C)(C)C)nc32)[C@H](O)[C@@H]1O [Compound 16A, tert-butyl (2-((6-amino-9-((2R,3R,4S,5S)-3,4-dihydroxy-5-((methylthio)methyl)tetrahydrofuran-2-yl)-9H-purin-2-yl)amino)ethyl)carbamate]	inhibits	inhibits	not dramatically altering the activity	not dramatically altering the activity	not dramatically altering the activity
CCNC(=O)[C@H]1O[C@@H](n2cnc3c(N)nc(Cl)nc32)[C@H](O)[C@@H]1O [Compound 20A-iii, 2-chloroadenosine-5′-N-ethylcarboxamide]	did not show appreciable inhibition	did not show appreciable inhibition	did not show appreciable inhibition	some modest inhibition	did not show appreciable inhibition
CCNC[C@H]1O[C@@H](n2cnc3c(N)nc(Cl)nc32)[C@H](O)[C@@H]1O [Compound 20A-iv, 2-chloroadenosine-5′-N-ethylamine]	did not show appreciable inhibition	did not show appreciable inhibition	did not show appreciable inhibition	did not show appreciable inhibition	did not show appreciable inhibition
